According to publication PMC8942502 (Journal of Enzyme Inhibition and Medicinal Chemistry, 2022):
Read-outs that look alike come from different tables or passages of the source.

Columns and labels:
[1] = target: T1, LSD1-CoREST complex (Homo sapiens, UniProt O60341); test: LSD1-CoREST inhibition assay (Amplex UltraRed/HRP, H3K4 peptide); assay type: biochemical; conditions: for IC50: mean ± SD from two experiments in duplicate, 10 min preincubation; for fold drop of anti-LSD1 potency compared with phenyl analogue: para compounds vs 1a, meta compound vs 1b
T1 construct: made in house; host or cells: Escherichia coli

[2] = target: T2, hMAO-A (Homo sapiens, UniProt P21397); test: Anti-MAO assay (Amplex Red, p-tyramine); assay type: biochemical; conditions: for MAO Selectivity Index: IC50 MAO-B/IC50 MAO-A; for IC50: mean ± SD, n = 3
T2 construct: purchased Sigma-Aldrich
T2 sequence (P21397 1-527): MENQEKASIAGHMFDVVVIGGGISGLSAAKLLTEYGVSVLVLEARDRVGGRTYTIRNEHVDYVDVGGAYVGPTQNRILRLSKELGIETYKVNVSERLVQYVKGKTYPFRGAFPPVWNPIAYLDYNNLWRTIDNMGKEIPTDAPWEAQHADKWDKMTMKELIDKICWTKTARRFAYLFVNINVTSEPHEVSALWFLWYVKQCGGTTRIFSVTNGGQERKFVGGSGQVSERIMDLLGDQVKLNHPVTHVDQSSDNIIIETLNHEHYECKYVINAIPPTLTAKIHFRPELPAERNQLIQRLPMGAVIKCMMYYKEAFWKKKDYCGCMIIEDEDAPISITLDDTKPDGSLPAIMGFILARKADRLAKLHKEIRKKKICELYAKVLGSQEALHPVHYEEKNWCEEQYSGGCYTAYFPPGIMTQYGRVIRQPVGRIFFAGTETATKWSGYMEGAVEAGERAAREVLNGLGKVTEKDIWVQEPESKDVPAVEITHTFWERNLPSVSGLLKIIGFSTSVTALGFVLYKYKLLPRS

[3] = target: T3, hMAO-B (Homo sapiens, UniProt P27338); test: Anti-MAO assay (Amplex Red, p-tyramine); assay type: biochemical; conditions: mean ± SD, n = 3
T3 construct: purchased Sigma-Aldrich
T3 sequence (P27338 1-520): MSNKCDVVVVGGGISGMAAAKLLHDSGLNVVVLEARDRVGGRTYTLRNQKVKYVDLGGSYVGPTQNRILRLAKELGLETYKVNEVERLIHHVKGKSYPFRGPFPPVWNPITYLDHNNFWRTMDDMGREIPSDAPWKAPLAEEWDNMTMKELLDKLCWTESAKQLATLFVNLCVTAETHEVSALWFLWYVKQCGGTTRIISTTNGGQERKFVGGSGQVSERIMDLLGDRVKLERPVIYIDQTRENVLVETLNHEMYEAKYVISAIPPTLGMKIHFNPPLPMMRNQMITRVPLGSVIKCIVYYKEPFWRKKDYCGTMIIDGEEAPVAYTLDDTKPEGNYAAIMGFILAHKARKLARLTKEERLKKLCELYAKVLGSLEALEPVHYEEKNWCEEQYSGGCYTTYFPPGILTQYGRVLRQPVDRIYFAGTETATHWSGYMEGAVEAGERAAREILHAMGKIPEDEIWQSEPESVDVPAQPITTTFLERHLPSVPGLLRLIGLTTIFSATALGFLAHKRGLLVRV

[4] = tested on: MAO-B; conditions: Figure 1, cited from earlier work
[5] = tested on: MAO-A; conditions: Figure 1, cited from earlier work
[6] = tested on: LSD1; conditions: Figure 1; cited from earlier work
[7] = tested on: LSD1-CoREST complex; test: LSD1-CoREST inhibition assay (Amplex UltraRed/HRP, H3K4 peptide); assay type: biochemical, human; conditions: for LSD1 selectivity vs MAO-A: IC50 MAO-A/IC50 LSD1; for LSD1 selectivity vs MAO-B: IC50 MAO-B/IC50 LSD1
[8] = tested on: LNCaP cells; test: MTT cell viability assay; assay type: cell-based; conditions: Homo sapiens
Experimental: (§1) The tested compounds have been dissolved in DMSO at […] as stock concentration. All compounds have been tested at 10 μM and 50 μM as final concentrations for WB analysis. All compounds have been used at 0.1 μM, 5 μM, 10 μM, 25 μM, 50 μM as final concentration for proliferation assays. ORY-1001 (Selleck Catalog No. S7795) was used as reference compound at the concentration of 25 μM.
(§2) Cell culture LNCaP and U937 were purchased from ATCC (Milan, Italy). LNCaP were grown in Roswell Park Memorial Institute culture medium (RPMI; EuroClone, Milan, Italy), supplemented with 10% heat-inactivated foetal bovine serum (FBS; Sigma-Aldrich, Schnellendorf, Germany), antimicrobials (100 U/mL penicillin, 100 µg/mL streptomycin, 250 ng/mL amphotericin-B), 2 mM L-glutamine (EuroClone, Milan, Italy), and 1% essential amino acids solution (MEM; EuroClone, Milan, Italy). U937 were cultured in Dulbecco’s Modified Eagle Medium (DMEM; EuroClone, Milan, Italy), supplemented with 10% heat-inactivated foetal bovine serum (FBS; Sigma-Aldrich, Schnellendorf, Germany), antimicrobials (100 U/mL penicillin, 100 µg/mL streptomycin, 250 ng/mL amphotericin-B), 2 mM L-glutamine (EuroClone). Cells have grown in standard incubator conditions at 37 °C and 5% CO2.
(§3) Cell viability was determined on LNCaP and U937 cell lines using Thiazolyl Blue Tetrazolium Bromide [3-(4,5-dimethylthiazol-2-yl)-2,5-diphenyltetrazolium bromide] (MTT; Sigma-Aldrich, Schnellendorf, Germany) assay, following manufacturer’s instructions. A total of 5 × 10^3 cells/well were plated in a 96-well plate and treated, in duplicates, and repeated for three times, with the tested compounds at different concentrations 0.1 μM, 5 μM, 10 μM, 25 μM, 50 μM as final concentrations for 48 h, and 72 h. […] Absorbance was read at a wavelength of 570 nm with a TECAN M − 200 reader (Tecan, Männedorf, Switzerland).

[9] = tested on: U937 cells; test: MTT cell viability assay; assay type: cell-based; conditions: 0.1-50 μM, 48 and 72 h
Experimental: as §1, §2, §3

[10] = tested on: NB4 APL cells; parameters: method as in PMID 32003940; conditions: cited from earlier work
[11] = tested on: MV4-11 acute myeloid leukaemia (AML) cells; parameters: method as in PMID 32003940; conditions: cited from earlier work
[12] = tested on: LNCaP cells; parameters: method as in PMID 30693539; conditions: 72 h; cited from earlier work

| IC50 [1] | MAO Selectivity Index [2] | IC50 [2] | melting point | IC50 [3] | IC50 ([8]; 48 h) | IC50 ([8]; 72 h) | Compound | LSD1 selectivity vs MAO-A [7] | LSD1 selectivity vs MAO-B [7] | effect on cell viability in U937 cells [9] | also measured |
| --- | --- | --- | --- | --- | --- | --- | --- | --- | --- | --- | --- |
| 1.08 ± 0.359 µM | 1.3 | 0.025 ± 0.002 µM | > 250 °C | 0.032 ± 0.003 µM | – | – | Cl.NC1CC1c1ccc(NC(=O)c2ccc(-c3cccs3)cc2)cc1 (centres unmarked) [4a, N-(4-(2-Aminocyclopropyl)phenyl)-4-(thiophen-2-yl)benzamide hydrochloride] | – | – | – | – |
| – | – | – | – | – | – | – | NC1CC1c1ccc(NC(=O)c2ccccc2)cc1 (centres unmarked) [MC2584, reference compound] | – | – | – | IC50 [4]: 8.98 µM; IC50 [5]: 0.031 µM; IC50 [6]: 0.019 µM |
| 0.015 ± 0.003 µM | 15.3 | 0.024 ± 0.002 µM | 245 to 248 °C | 0.366 ± 0.032 µM | 25.7 ± 8.3 µM | 15.2 ± 3.5 µM | Cl.NC1CC1c1ccc(NC(=O)c2cccc(-c3cccs3)c2)cc1 (centres unmarked) [4b, N-(4-(2-Aminocyclopropyl)phenyl)-3-(thiophen-2-yl)benzamide hydrochloride] | 1.6 | 24.4 | almost ineffective | – |
| 0.11 ± 0.044 µM | 9.5 | 0.093 ± 0.008 µM | 208 to 210 °C | 0.888 ± 0.077 µM | 27.6 ± 9.8 µM | 18.5 ± 2.7 µM | Cl.NC1CC1c1ccc(NC(=O)c2cccc(-c3ccco3)c2)cc1 (centres unmarked) [2b, N-(4-(2-Aminocyclopropyl)phenyl)-3-(furan-2-yl)benzamide hydrochloride] | 0.8 | 8.1 | almost ineffective | – |
| 2 ± 0.528 µM | 1.7 | 0.043 ± 0.004 µM | – | 0.073 ± 0.006 µM | – | – | Cl.NC1CC1c1ccc(NC(=O)c2ccc(-c3ccco3)cc2)cc1 (centres unmarked) [2a, N-(4-(2-Aminocyclopropyl)phenyl)-4-(furan-2-yl)benzamide hydrochloride] | – | – | – | – |
| 0.149 ± 0.043 µM | 11.7 | 0.028 ± 0.002 µM | > 250 °C | 0.327 ± 0.028 µM | 22.8 ± 5.1 µM | 9.9 ± 1.7 µM | Cl.NC1CC1c1ccc(NC(=O)c2cccc(-c3ccccc3)c2)cc1 (centres unmarked) [1b, N-(4-(2-Aminocyclopropyl)phenyl)-[1,1′-biphenyl]-3-carboxamide hydrochloride] | 0.2 | 2.2 | the most potent | fold higher potency against LSD1 of meta regioisomer than para counterpart ([1]; meta vs para): 1.3 fold |
| – | – | – | – | – | – | – | C#CCN(C)CCCOc1ccc(Cl)cc1Cl [clorgyline] | – | – | – | IC50 [12]: 63.7 ± 8.2 µM |
| 0.005 ± 0.0008 µM | – | 0.028 ± 0.002 µM | > 250 °C | 0.82 ± 0.071 µM | 32.1 ± 7.8 µM | 17.2 ± 3.5 µM | Cl.NC1CC1c1ccc(NC(=O)c2cccc(-c3ccsc3)c2)cc1 (centres unmarked) [5b, N-(4-(2-Aminocyclopropyl)phenyl)-3-(thiophen-3-yl)benzamide hydrochloride] | – | – | the most potent | – |
| 2.34 ± 0.225 µM | 0.6 | 0.16 ± 0.014 µM | – | 0.093 ± 0.008 µM | – | – | Cl.NC1CC1c1ccc(NC(=O)c2ccc(-c3ccoc3)cc2)cc1 (centres unmarked) [3a, N-(4-(2-Aminocyclopropyl)phenyl)-4-(furan-3-yl)benzamide hydrochloride] | – | – | – | – |
| 0.341 ± 0.106 µM | 1.6 | 0.042 ± 0.004 µM | – | 0.067 ± 0.006 µM | 26.5 ± 4.8 µM | 17.9 ± 1.6 µM | Cl.NC1CC1c1ccc(NC(=O)c2ccc(-c3ccsc3)cc2)cc1 (centres unmarked) [5a, N-(4-(2-Aminocyclopropyl)phenyl)-4-(thiophen-3-yl)benzamide hydrochloride] | – | – | the most potent | – |
| 0.221 ± 0.023 µM | 0.5 | 1.12 ± 0.097 µM | 235 to 238 °C | 0.519 ± 0.036 µM | 12.4 ± 6.1 µM | 13.4 ± 3.7 µM | Cl.NC1CC1c1ccc(NC(=O)c2cccc(-c3ccoc3)c2)cc1 (centres unmarked) [3b, N-(4-(2-Aminocyclopropyl)phenyl)-3-(furan-3-yl)benzamide hydrochloride] | 5.1 | 2.3 | the most potent | – |
| 0.572 ± 0.157 µM | 66 | 0.159 ± 0.014 µM | > 250 °C | 10.4 ± 0.3 µM | – | – | Cl.NC1CC1c1ccc(NC(=O)c2cccc(-c3ccncc3)c2)cc1 (centres unmarked) [6b, N-(4-(2-Aminocyclopropyl)phenyl)-3-(pyridin-4-yl)benzamide hydrochloride] | 0.3 | 18.2 | – | fold drop of anti-LSD1 potency compared with phenyl analogue [1]: 4 fold |
| 13.9 ± 3.06 µM | 5.2 | 0.069 ± 0.006 µM | > 250 °C | 0.358 ± 0.031 µM | – | – | Cl.NC1CC1c1ccc(NC(=O)c2ccc(-c3ccncc3)cc2)cc1 (centres unmarked) [6a, N-(4-(2-Aminocyclopropyl)phenyl)-4-(pyridin-4-yl)benzamide hydrochloride] | – | – | – | fold drop of anti-LSD1 potency compared with phenyl analogue [1]: 73 fold |

| Compound | IC50 [1] | MAO Selectivity Index [2] | IC50 [2] | melting point | IC50 [3] | IC50 ([8]; 48 h) | IC50 ([8]; 72 h) | LSD1 selectivity vs MAO-A [7] | LSD1 selectivity vs MAO-B [7] | effect on cell viability in U937 cells [9] | also measured |
| --- | --- | --- | --- | --- | --- | --- | --- | --- | --- | --- | --- |
| NC1CC1c1ccc(NC(=O)c2ccc(-c3ccccc3)cc2)cc1 (centres unmarked) [1a] | 0.19 ± 0.03 µM | – | – | – | – | 34.1 ± 13.2 µM | 25.4 ± 3.2 µM | – | – | almost ineffective | MAO-B inhibition ([4]; @ 100 μM): 8%; MAO-A inhibition ([5]; @ 100 μM): 2%; IC50 [6]: 0.051 µM; cell growth arrest IC50 [10]: low, single-digit micromolar levels; cell growth arrest IC50 [11]: low, single-digit micromolar levels |
